Data taken from patent US20100160445A1, “Synergistic Mixtures of OPP and DGH” (priority 2002, published 2010).
Where a name gives a salt, the structure may show the parent alone.

Test system: wild strain bacteria isolated from previously contaminated systems
Assay: In-Can Preservation Test of paint samples; on Microbial growth, 1st Inoculation, 1st sub-column: key: 4 = Heavy Microbial Growth; 3 = Moderate Microbial Growth; 2 = Slight Microbial Growth; 1 = Trace Microbial Growth; 0 = No Microbial Growth; on Microbial growth, 1st Inoculation, 2nd sub-column: key: 4 = Heavy Microbial Growth; 3 = Moderate Microbial Growth; 2 = Slight Microbial Growth; 1 = Trace Microbial Growth; 0 = No Microbial Growth; on Microbial growth, 2nd Inoculation, 1st sub-column: key: 4 = Heavy Microbial Growth; 3 = Moderate Microbial Growth; 2 = Slight Microbial Growth; 1 = Trace Microbial Growth; 0 = No Microbial Growth; on Microbial growth, 2nd Inoculation, 2nd sub-column: key: 4 = Heavy Microbial Growth; 3 = Moderate Microbial Growth; 2 = Slight Microbial Growth; 1 = Trace Microbial Growth; 0 = No Microbial Growth
Assay type: cell-based
Settings: for Effective Preservative (ppm): two inoculation challenge
Protocol: Preservation Testing was performed on the three paint samples: Acrylic Flat, Acrylic and Vinyl Acrylic. Each sample was treated with various levels OPP, DGH individually and a mixture of OPP and DGH. All samples were then inoculated with wild strain bacteria isolated from previously contaminated systems. Following the initial inoculation, the samples were reinoculated on day 7. This testing scenario best simulates what happens in a “real world” situation. […]

[1] = Table 2 paint (Acrylic Flat / Vinyl Acrylic Flat), 250 ppm
[2] = Table 2 paint (Acrylic Flat / Vinyl Acrylic Flat), 500 ppm
[3] = Table 2 paint (Acrylic Flat / Vinyl Acrylic Flat), 750 ppm
[4] = Table 2 paint (Acrylic Flat / Vinyl Acrylic Flat), 1000 ppm
[5] = Table 2 paint (Acrylic Flat / Vinyl Acrylic Flat), 1500 ppm
[6] = Table 2 paint (Acrylic Flat / Vinyl Acrylic Flat), 2000 ppm
[7] = Table 3 paint (Vinyl Acrylic Flat / Acrylic Flat), 250 ppm
[8] = Table 3 paint (Vinyl Acrylic Flat / Acrylic Flat), 500 ppm
[9] = Table 3 paint (Vinyl Acrylic Flat / Acrylic Flat), 750 ppm
[10] = Table 3 paint (Vinyl Acrylic Flat / Acrylic Flat), 1000 ppm
[11] = Table 3 paint (Vinyl Acrylic Flat / Acrylic Flat), 1500 ppm
[12] = Table 3 paint (Vinyl Acrylic Flat / Acrylic Flat), 2000 ppm

`CCCCCCCCCCCCNC(=N)N` [DGH, Dodecylguanidine Hydrochloride] was tested, and the “Effective Preservative (ppm)” value (Acrylic Flat paint) was 1500 ppm, the “Microbial growth, 1st Inoculation, 1st sub-column” value (Acrylic paint, 250 ppm) was 3 and the “Microbial growth, 1st Inoculation, 2nd sub-column” value (Acrylic paint, 250 ppm) was 3. The “Microbial growth, 2nd Inoculation, 1st sub-column” value (Acrylic paint, 250 ppm) was 3, the “Microbial growth, 2nd Inoculation, 2nd sub-column” value (Acrylic paint, 250 ppm) was 3 and the “Microbial growth, 1st Inoculation, 1st sub-column” value (Acrylic paint, 500 ppm) was 3. The “Microbial growth, 1st Inoculation, 2nd sub-column” value (Acrylic paint, 500 ppm) was 3, the “Microbial growth, 2nd Inoculation, 1st sub-column” value (Acrylic paint, 500 ppm) was 2 and the “Microbial growth, 2nd Inoculation, 2nd sub-column” value (Acrylic paint, 500 ppm) was 3. The “Microbial growth, 1st Inoculation, 1st sub-column” value (Acrylic paint, 750 ppm) was 3, the “Microbial growth, 1st Inoculation, 2nd sub-column” value (Acrylic paint, 750 ppm) was 2 and the “Microbial growth, 2nd Inoculation, 1st sub-column” value (Acrylic paint, 750 ppm) was 2. For the same compound, the “Microbial growth, 2nd Inoculation, 2nd sub-column” value (Acrylic paint, 750 ppm) was 2, the “Microbial growth, 1st Inoculation, 1st sub-column” value (Acrylic paint, 1000 ppm) was 3 and the “Microbial growth, 1st Inoculation, 2nd sub-column” value (Acrylic paint, 1000 ppm) was 2. The “Microbial growth, 2nd Inoculation, 1st sub-column” value (Acrylic paint, 1000 ppm) was 1, the “Microbial growth, 2nd Inoculation, 2nd sub-column” value (Acrylic paint, 1000 ppm) was 1 and the “Microbial growth, 1st Inoculation, 1st sub-column” value (Acrylic paint, 1500 ppm) was 3. The “Microbial growth, 1st Inoculation, 2nd sub-column” value (Acrylic paint, 1500 ppm) was 0, the “Microbial growth, 2nd Inoculation, 1st sub-column” value (Acrylic paint, 1500 ppm) was 1 and the “Microbial growth, 2nd Inoculation, 2nd sub-column” value (Acrylic paint, 1500 ppm) was 0. For the same compound, the “Microbial growth, 1st Inoculation, 1st sub-column” value (Acrylic paint, 2000 ppm) was 3, the “Microbial growth, 1st Inoculation, 2nd sub-column” value (Acrylic paint, 2000 ppm) was 0 and the “Microbial growth, 2nd Inoculation, 1st sub-column” value (Acrylic paint, 2000 ppm) was 1. For the same compound, the “Microbial growth, 2nd Inoculation, 2nd sub-column” value (Acrylic paint, 2000 ppm) was 0, the “Effective Preservative (ppm)” value (Acrylic paint) was 2000 ppm and the “Microbial growth, 1st Inoculation, 1st sub-column” value [1] was 3. The “Microbial growth, 1st Inoculation, 2nd sub-column” value [1] was 2, the “Microbial growth, 2nd Inoculation, 1st sub-column” value [1] was 3 and the “Microbial growth, 2nd Inoculation, 2nd sub-column” value [1] was 2. For the same compound, the “Microbial growth, 1st Inoculation, 1st sub-column” value [2] was 3, the “Microbial growth, 1st Inoculation, 2nd sub-column” value [2] was 2 and the “Microbial growth, 2nd Inoculation, 1st sub-column” value [2] was 2. For the same compound, the “Microbial growth, 2nd Inoculation, 2nd sub-column” value [2] was 2, the “Microbial growth, 1st Inoculation, 1st sub-column” value [3] was 3 and the “Microbial growth, 1st Inoculation, 2nd sub-column” value [3] was 2. The “Microbial growth, 2nd Inoculation, 1st sub-column” value [3] was 2, the “Microbial growth, 2nd Inoculation, 2nd sub-column” value [3] was 2 and the “Microbial growth, 1st Inoculation, 1st sub-column” value [4] was 3. For the same compound, the “Microbial growth, 1st Inoculation, 2nd sub-column” value [4] was 2, the “Microbial growth, 2nd Inoculation, 1st sub-column” value [4] was 3 and the “Microbial growth, 2nd Inoculation, 2nd sub-column” value [4] was 2. For the same compound, the “Microbial growth, 1st Inoculation, 1st sub-column” value [5] was 3, the “Microbial growth, 1st Inoculation, 2nd sub-column” value [5] was 2 and the “Microbial growth, 2nd Inoculation, 1st sub-column” value [5] was 3. For the same compound, the “Microbial growth, 2nd Inoculation, 2nd sub-column” value [5] was 1, the “Microbial growth, 1st Inoculation, 1st sub-column” value [6] was 3 and the “Microbial growth, 1st Inoculation, 2nd sub-column” value [6] was 0. For the same compound, the “Microbial growth, 2nd Inoculation, 1st sub-column” value [6] was 1, the “Microbial growth, 2nd Inoculation, 2nd sub-column” value [6] was 0 and the “Microbial growth, 1st Inoculation, 1st sub-column” value [7] was 3. The “Microbial growth, 1st Inoculation, 2nd sub-column” value [7] was 2, the “Microbial growth, 2nd Inoculation, 1st sub-column” value [7] was 3 and the “Microbial growth, 2nd Inoculation, 2nd sub-column” value [7] was 2. The “Microbial growth, 1st Inoculation, 1st sub-column” value [8] was 2, the “Microbial growth, 1st Inoculation, 2nd sub-column” value [8] was 2 and the “Microbial growth, 2nd Inoculation, 1st sub-column” value [8] was 3. For the same compound, the “Microbial growth, 2nd Inoculation, 2nd sub-column” value [8] was 1, the “Microbial growth, 1st Inoculation, 1st sub-column” value [9] was 2 and the “Microbial growth, 1st Inoculation, 2nd sub-column” value [9] was 2. For the same compound, the “Microbial growth, 2nd Inoculation, 1st sub-column” value [9] was 3, the “Microbial growth, 2nd Inoculation, 2nd sub-column” value [9] was 1 and the “Microbial growth, 1st Inoculation, 1st sub-column” value [10] was 2. The “Microbial growth, 1st Inoculation, 2nd sub-column” value [10] was 2, the “Microbial growth, 2nd Inoculation, 1st sub-column” value [10] was 3 and the “Microbial growth, 2nd Inoculation, 2nd sub-column” value [10] was 1. For the same compound, the “Microbial growth, 1st Inoculation, 1st sub-column” value [11] was 2, the “Microbial growth, 1st Inoculation, 2nd sub-column” value [11] was 2 and the “Microbial growth, 2nd Inoculation, 1st sub-column” value [11] was 2. For the same compound, the “Microbial growth, 2nd Inoculation, 2nd sub-column” value [11] was 2, the “Microbial growth, 1st Inoculation, 1st sub-column” value [12] was 2 and the “Microbial growth, 1st Inoculation, 2nd sub-column” value [12] was 2. The “Microbial growth, 2nd Inoculation, 1st sub-column” value [12] was 2, the “Microbial growth, 2nd Inoculation, 2nd sub-column” value [12] was 2 and the “Effective Preservative (ppm)” value (Vinyl Acrylic Flat paint) was >2000 ppm.
